Activity calls are given as the source filed them. No cut-off for these calls is given here.
Assays:
SMMC-7721 [1] = test: Induction of apoptosis in human SMMC7721 cells assessed as early apoptotic cells at 4 uM incubated for 48 hrs by Annexin-V-FITC/propidium iodide staining based flow cytometry (Rvb=2.88%); assay type: functional
SMMC-7721 [2] = test: Induction of apoptosis in human SMMC7721 cells assessed as late apoptotic cells at 4 uM incubated for 48 hrs by Annexin-V-FITC/propidium iodide staining based flow cytometry (Rvb=1.73%); assay type: functional
SMMC-7721 [3] = test: Induction of apoptosis in human SMMC7721 cells assessed as necrotic cells at 0.25 uM incubated for 48 hrs by Annexin-V-FITC/propidium iodide staining based flow cytometry (Rvb=1.88%); assay type: functional
SMMC-7721 [4] = test: Induction of apoptosis in human SMMC7721 cells assessed as viable cells at 4 uM incubated for 48 hrs by Annexin-V-FITC/propidium iodide staining based flow cytometry (Rvb=93.5%); assay type: functional; details: SMMC-7721, 48 h, read-out: Activity
HCT-116 [5] = test: Antiproliferative activity against human HCT116 cells assessed as reduction in cell growth at 2 uM incubated for 72 hrs by CCK-8 assay relative to control; assay type: functional; details: HCT-116, 72 h
SMMC-7721 [6] = test: Cell cycle arrest in human SMMC7721 cells assessed as accumulation at S phase at 0.25 uM incubated for 48 hrs by propidium iodide staining based flow cytometry (Rvb=6.83%); assay type: functional
SMMC-7721 [7] = test: Cell cycle arrest in human SMMC7721 cells assessed as accumulation at G0/G1 phase at 4 uM incubated for 48 hrs by propidium iodide staining based flow cytometry (Rvb=77%); assay type: functional
A549 [8] = test: Antiproliferative activity against human A549 cells assessed as reduction in cell growth at 8 uM incubated for 72 hrs by CCK-8 assay relative to control; assay type: functional; details: A549, 72 h
HCT-116 [9] = test: Antiproliferative activity against human HCT116 cells assessed as reduction in cell growth at 8 uM incubated for 72 hrs by CCK-8 assay relative to control; assay type: functional; details: HCT-116, 72 h
HCT-116 [10] = test: Antiproliferative activity against human HCT116 cells assessed as reduction in cell growth incubated for 72 hrs by CCK-8 assay; assay type: functional, cell-based; details: HCT-116, 72 h
SMMC-7721 [11] = test: Cell cycle arrest in human SMMC7721 cells assessed as accumulation at S phase at 1 uM incubated for 48 hrs by propidium iodide staining based flow cytometry (Rvb=6.83%); assay type: functional
SMMC-7721 [12] = test: Induction of apoptosis in human SMMC7721 cells assessed as late apoptotic cells at 1 uM incubated for 48 hrs by Annexin-V-FITC/propidium iodide staining based flow cytometry (Rvb=1.73%); assay type: functional
Histone deacetylase 2 [13] = molecular target: T1, Histone deacetylase 2 (Homo sapiens, UniProt Q92769); test: Inhibition of human recombinant His-tagged HDAC2 ([…]) expressed in baculovirus infected insect cells using FLUOR DE LYS Green as substrate preincubated for 10 mins followed by substrate addition and measured after 30 mins by fluorescence method
SMMC-7721 [14] = test: Induction of apoptosis in human SMMC7721 cells assessed as viable cells at 1 uM incubated for 48 hrs by Annexin-V-FITC/propidium iodide staining based flow cytometry (Rvb=93.5%); assay type: functional; details: SMMC-7721, 48 h, read-out: Activity
SMMC-7721 [15] = test: Cell cycle arrest in human SMMC7721 cells assessed as accumulation at G0/G1 phase at 1 uM incubated for 48 hrs by propidium iodide staining based flow cytometry (Rvb=77%); assay type: functional
SMMC-7721 [16] = test: Cell cycle arrest in human SMMC7721 cells assessed as accumulation at G2/M phase at 4 uM incubated for 48 hrs by propidium iodide staining based flow cytometry (Rvb=16.17%); assay type: functional
A549 [17] = test: Antiproliferative activity against human A549 cells assessed as reduction in cell growth incubated for 72 hrs by CCK-8 assay; assay type: functional, cell-based; details: A549, 72 h
SMMC-7721 [18] = test: Antiproliferative activity against human SMMC7721 cells assessed as reduction in cell growth at 2 uM incubated for 72 hrs by CCK-8 assay relative to control; assay type: functional; details: SMMC-7721, 72 h
SMMC-7721 [19] = test: Induction of apoptosis in human SMMC7721 cells assessed as early apoptotic cells at 0.25 uM incubated for 48 hrs by Annexin-V-FITC/propidium iodide staining based flow cytometry (Rvb=2.88%); assay type: functional
SMMC-7721 [20] = test: Cell cycle arrest in human SMMC7721 cells assessed as accumulation at G2/M phase at 0.25 uM incubated for 48 hrs by propidium iodide staining based flow cytometry (Rvb=16.17%); assay type: functional
Histone deacetylase 2 [21] = molecular target: T1, Histone deacetylase 2; test: Inhibition of HDAC2 in human SMMC7721 cells assessed as increase in H3K9 acetylation at 1uM incubated for 48 hrs by DAPI staining based confocal fluorescence microscopy; assay type: cell-based
SMMC-7721 [22] = test: Induction of apoptosis in human SMMC7721 cells assessed as viable cells at 0.25 uM incubated for 48 hrs by Annexin-V-FITC/propidium iodide staining based flow cytometry (Rvb=93.5%); assay type: functional; details: SMMC-7721, 48 h, read-out: Activity
A549 [23] = test: Antitumor activity against human A549 cells xenografted in BALB/C mouse assessed as reduction in tumor size at 25 mg/kg, ip bid for 21 days measured at 3 days interval during compound dosing by visual analysis; assay type: functional, organism-based
[24] = Toxicity in BALB/C mouse xenografted with human A549 cells assessed as reduction in body weight at 25 mg/kg, ip bid for 21 days measured at 3 days interval during compound dosing; assay type: organism-based; details: in vivo
A549 [25] = test: Antitumor activity against human A549 cells xenografted in BALB/C mouse assessed as tumor growth inhibition at 25 mg/kg, ip bid for 21 days measured at 3 days interval during compound dosing relative to control; assay type: functional; details: read-out: TGI
SMMC-7721 [26] = test: Cell cycle arrest in human SMMC7721 cells assessed as accumulation at G2/M phase incubated for 48 hrs by propidium iodide staining-based flow cytometry; assay type: functional

T1 sequence (Q92769 whole entry): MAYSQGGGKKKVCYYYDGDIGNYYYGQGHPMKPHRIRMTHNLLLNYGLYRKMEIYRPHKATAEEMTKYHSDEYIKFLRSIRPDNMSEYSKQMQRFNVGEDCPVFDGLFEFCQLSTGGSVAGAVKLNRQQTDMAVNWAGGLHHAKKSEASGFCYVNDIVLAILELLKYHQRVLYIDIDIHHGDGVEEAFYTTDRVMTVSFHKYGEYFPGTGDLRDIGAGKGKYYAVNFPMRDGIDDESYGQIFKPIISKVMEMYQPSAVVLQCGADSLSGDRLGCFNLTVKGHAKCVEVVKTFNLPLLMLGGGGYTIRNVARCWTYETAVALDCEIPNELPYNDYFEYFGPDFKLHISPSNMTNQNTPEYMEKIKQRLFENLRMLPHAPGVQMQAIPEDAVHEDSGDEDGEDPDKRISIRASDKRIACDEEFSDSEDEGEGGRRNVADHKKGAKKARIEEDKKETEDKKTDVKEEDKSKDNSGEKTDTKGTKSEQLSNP

## Cn1c(SCc2ccc(C(=O)Nc3ccccc3N)cc2)nc2cc(Br)ccc2c1=O
SMMC-7721 [1]
  Activity: 6.61%
SMMC-7721 [2]
  Activity: 51.4%
SMMC-7721 [3]
  Activity: 4.73%
SMMC-7721 [4]
  viability at 4 µM: 26.9%
HCT-116 [5]
  inhibition at 2 µM: 72.4%
SMMC-7721 [6]
  Activity: 15.53%
SMMC-7721 [7]
  Activity: 56.05%
A549 [8]
  inhibition at 8 µM: 66.2%
HCT-116 [9]
  inhibition at 8 µM: 88.4%
HCT-116 [10]
  IC50: 1220 nM
SMMC-7721 [11]
  Activity: 18.28%
SMMC-7721 [12]
  Activity: 33.8%
Histone deacetylase 2 [13]
  IC50: 530 nM
SMMC-7721 [14]
  viability at 1 µM: 49.5%
SMMC-7721 [15]
  Activity: 56.35%
SMMC-7721 [16]
  Activity: 19.19%
A549 [17]
  IC50: 4.6 µM
SMMC-7721 [18]
  inhibition at 2 µM: 35.6%
SMMC-7721 [19]
  Activity: 6.01%
SMMC-7721 [20]
  Activity: 18.88%
Histone deacetylase 2 [21]
  inhibition: Active
SMMC-7721 [22]
  viability at 0.25 µM: 79.4%

## CCn1c(SCc2ccc(/C=C/C(=O)Nc3ccccc3N)cc2)nc2cc(OC)ccc2c1=O
SMMC-7721 [1]
  Activity: 10.5%
SMMC-7721 [2]
  Activity: 38.2%
SMMC-7721 [3]
  Activity: 4.51%
SMMC-7721 [4]
  viability at 4 µM: 41.3%
HCT-116 [5]
  inhibition at 2 µM: 67.3%
SMMC-7721 [6]
  Activity: 20.75%
SMMC-7721 [7]
  Activity: 53.62%
A549 [8]
  inhibition at 8 µM: 78.2%
HCT-116 [9]
  inhibition at 8 µM: 80.5%
HCT-116 [10]
  IC50: 1430 nM
SMMC-7721 [11]
  Activity: 16.13%
SMMC-7721 [12]
  Activity: 28.8%
Histone deacetylase 2 [13]
  IC50: 180 nM
SMMC-7721 [14]
  viability at 1 µM: 45.8%
SMMC-7721 [15]
  Activity: 50.71%
SMMC-7721 [16]
  Activity: 17.68%
A549 [17]
  IC50: 1.76 µM
SMMC-7721 [18]
  inhibition at 2 µM: 56.8%
SMMC-7721 [19]
  Activity: 6.55%
SMMC-7721 [20]
  Activity: 17.67%
Histone deacetylase 2 [21]
  inhibition: Active
SMMC-7721 [22]
  viability at 0.25 µM: 79.3%

## COc1ccc2c(=O)n(-c3ccccc3Cl)c(SCc3ccc(C(=O)Nc4ccccc4N)cc3)nc2c1
SMMC-7721 [1]
  Activity: 5.54%
SMMC-7721 [2]
  Activity: 20.4%
SMMC-7721 [3]
  Activity: 2.7%
SMMC-7721 [4]
  viability at 4 µM: 65.8%
HCT-116 [5]
  inhibition at 2 µM: 43.7%
SMMC-7721 [6]
  Activity: 19.96%
SMMC-7721 [7]
  Activity: 27.52%
A549 [8]
  inhibition at 8 µM: 80.6%
HCT-116 [9]
  inhibition at 8 µM: 83.3%
HCT-116 [10]
  IC50: 2380 nM
SMMC-7721 [11]
  Activity: 28.44%
SMMC-7721 [12]
  Activity: 19.1%
Histone deacetylase 2 [13]
  IC50: 610 nM
SMMC-7721 [14]
  viability at 1 µM: 65.6%
SMMC-7721 [15]
  Activity: 34.49%
SMMC-7721 [16]
  Activity: 27.3%
A549 [17]
  IC50: 6.27 µM
SMMC-7721 [18]
  inhibition at 2 µM: 50.4%
SMMC-7721 [19]
  Activity: 15.9%
SMMC-7721 [20]
  Activity: 31.29%
Histone deacetylase 2 [21]
  inhibition: Active
SMMC-7721 [22]
  viability at 0.25 µM: 68.3%

## COc1ccc2c(=O)n(C)c(SCc3ccc(C(=O)Nc4ccccc4N)cc3)nc2c1
SMMC-7721 [1]
  Activity: 13%
A549 [23]
  Activity: Active
SMMC-7721 [2]
  Activity: 54.8%
SMMC-7721 [3]
  Activity: 5.77%
SMMC-7721 [4]
  viability at 4 µM: 21.7%
HCT-116 [5]
  inhibition at 2 µM: 73.1%
SMMC-7721 [6]
  Activity: 22.23%
[24]
  Activity: Non-Toxic
SMMC-7721 [7]
  Activity: 46.09%
A549 [8]
  inhibition at 8 µM: 82.8%
HCT-116 [9]
  inhibition at 8 µM: 91.8%
HCT-116 [10]
  IC50: 750 nM
SMMC-7721 [11]
  Activity: 19.34%
SMMC-7721 [12]
  Activity: 45.4%
A549 [25]
  inhibition in vivo at 25 mg/kg: 62.5%
Histone deacetylase 2 [13]
  IC50: 160 nM
SMMC-7721 [26]
  Activity: Dose-dependent effect
SMMC-7721 [14]
  viability at 1 µM: 32.3%
SMMC-7721 [15]
  Activity: 58.1%
SMMC-7721 [16]
  Activity: 31.22%
A549 [17]
  IC50: 3.06 µM
SMMC-7721 [18]
  inhibition at 2 µM: 68.8%
SMMC-7721 [19]
  Activity: 9.27%
SMMC-7721 [20]
  Activity: 11.67%
Histone deacetylase 2 [21]
  inhibition: Active
SMMC-7721 [22]
  viability at 0.25 µM: 66%

Reference: ChEMBL document CHEMBL4393680, “Design, synthesis and biological evaluation of novel thioquinazolinone-based 2-aminobenzamide derivatives as potent histone deacetylase (HDAC) inhibitors” (Eur J Med Chem, 2019)
